In patent US20240025862A1, “SUBSTITUTED N-PHENYLURACILS AND SALTS THEREOF, AND USE THEREOF AS HERBICIDAL ACTIVE SUBSTANCES” (Bayer Aktiengesellschaft, priority 2020, published 2024):

Key:
Format in all cases: in vivo
[1] = system: Polygonum convolvulus (POLCO); experiment: Post-emergence herbicidal action, greenhouse pot test
Summary of the method: (§1)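 Activity was scored by eye about 3 weeks after treatment against untreated plants, where 100% means dead plants and 0% means no difference. Plants at the one-leaf stage received a foliar spray of WP or EC formulations in water plus 0.5% additive (600 l/ha, up to 20 g/ha). Plants were grown in sandy loam pots in a greenhouse for 2–3 weeks before spraying.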

[2] = system: Abutilon theophrasti (ABUTH); experiment: as above; details: rated visually after about 3 weeks vs untreated controls, 100% = plants have died
Summary of the method: as §1

Viola tricolor (VIOTR) = experiment: as above
Summary of the method: as §1

[3] = system: Amaranthus retroflexus (AMARE); experiment: as above; details: rated visually after about 3 weeks vs untreated controls, 100% = plants have died
Summary of the method: as §1

[4] = system: Pharbitis purpurea (PHBPU); experiment: as above
Summary of the method: as §1

Veronica persica (VERPE) [5] = experiment: as above
Summary of the method: as §1

Brassica napus (BRSNW) = experiment: Post-emergence crop plant compatibility, greenhouse pot test; details: 1.25 g/ha, vs untreated controls
Summary of the method: (§2)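 Values are visual % damage versus untreated controls (100% = plants died) about 3 weeks after treatment. Plants in sandy loam were sprayed at the one-leaf stage, 2–3 weeks after sowing, with aqueous WP/EC preparations plus 0.5% additive at 600 l/ha; a/b/c mark different dose levels.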

[6] = system: Triticum aestivum (TRZAS); experiment: as above; details: 1.25 g/ha, vs untreated controls
Summary of the method: as §2

[7] = system: Matricaria inodora (MATIN); experiment: Post-emergence herbicidal action, greenhouse pot test (also comparative test C)
Summary of the method: (§3)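 Greenhouse pot plants in sandy loam were sprayed post-emergence at the one-leaf stage (2–3 weeks after sowing) with WP or EC formulations plus 0.5% additive at 600 l/ha water. Activity was rated visually after about 3 weeks versus untreated controls (100% = dead, 0% = like control); rates were 20 g/ha or less, and 5 g/ha or less in the comparative test.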

[8] = system: Echinochloa crus-galli (ECHCG); experiment: as above
Summary of the method: as §3

Setaria viridis (SETVI) = experiment: as above
Summary of the method: as §3

[9] = system: Alopecurus myosuroides (ALOMY); experiment: as above; details: rated visually after about 3 weeks vs untreated controls, 100% = plants have died
Summary of the method: as §3

Oryza sativa (ORYSA) = experiment: Post-emergence crop plant compatibility, greenhouse pot test (also comparative test C); details: vs untreated controls
Summary of the method: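 Visual damage versus untreated plants (0% = like control, 100% = plants died) was scored about 3 weeks after a post-emergence spray in greenhouse pots. Treatment: one-leaf stage, WP or EC in water at 600 l/ha with 0.5% additive; a/b/c mark different dosages on the same crop.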

Glycine max (GLXMA) = experiment: Pre-emergence crop plant compatibility, greenhouse pot test; details: 20 g/ha
Source text: (§4) Seeds of monocotyledonous and dicotyledonous weed plants and crop plants were placed in plastic or organic planting pots and covered with soil. The compounds of the invention, formulated in the form of wettable powders (WP) or as emulsion concentrates (EC), were then applied to the surface of the covering soil as aqueous suspension or emulsion with addition of 0.5% additive at a water application rate equivalent to 600 l/ha (converted). After the treatment, the pots were placed in a greenhouse and kept under good growth conditions for the test plants. After about 3 weeks, the effect of the preparations was scored visually in comparison with untreated controls as percentages. For example, 100% activity=the plants have died, 0% activity=like control plants.
(§5) The observed effects on selected crop plants are reported here in comparison to the untreated controls (values in %).

Zea mays (ZEAMX) [10] = experiment: as above; details: 20 g/ha
Source text: as §4, §5

[11] = system: Matricaria inodora (MATIN); experiment: Pre-emergence herbicidal action, greenhouse pot test; details: scored after about 3 weeks
Source text: as §4
(§6) Tables B1 to B10 below show the effects of selected compounds of the general formula (I) according to Tables I.1 to I.33 on various harmful plants and at an application rate corresponding to 80 g/ha and less, which were obtained by the experimental method specified above. The appendices “a”, “b” and “c” give differentiation by different dosage with otherwise the same harmful plants tested.

[12] = system: Echinochloa crus-galli (ECHCG); experiment: as above; details: scored after about 3 weeks
Source text: as §4, §6

[13] = system: Abutilon theophrasti (ABUTH); experiment: as above; details: scored after about 3 weeks
Source text: as §4, §6

Avena fatua (AVEFA) [14] = experiment: as above; details: 80 g/ha, scored after about 3 weeks
Source text: as §4, §6

Lolium rigidum (LOLRI) [15] = experiment: as above; details: scored after about 3 weeks
Source text: as §4, §6

[16] = system: Amaranthus retroflexus (AMARE); experiment: as above; details: scored after about 3 weeks
Source text: as §4, §6

[17] = system: Digitaria sanguinalis (DIGSA); experiment: as above; details: scored after about 3 weeks
Source text: as §4, §6

[18] = system: Pharbitis purpurea (PHBPU); experiment: as above; details: scored after about 3 weeks
Source text: as §4, §6

Veronica persica (VERPE) [19] = experiment: as above; details: scored after about 3 weeks
Source text: as §4, §6

[20] = system: Alopecurus myosuroides (ALOMY); experiment: as above; details: scored after about 3 weeks
Source text: as §4, §6

Hordeum murinum (HORMU) = experiment: Post-emergence herbicidal action, greenhouse pot test; details: rated visually after about 3 weeks vs untreated controls, 100% = plants have died
Summary of the method: as §1

Avena fatua (AVEFA) [21] = experiment: as above; details: 20 g/ha, rated visually after about 3 weeks vs untreated controls, 100% = plants have died
Summary of the method: as §1

Stellaria media (STEME) = experiment: as above
Summary of the method: as §1

Lolium rigidum (LOLRI) [22] = experiment: as above; details: dosage 20 g/ha
Summary of the method: as §1

Zea mays (ZEAMX) [23] = experiment: Post-emergence crop plant compatibility, greenhouse pot test; details: 1.25 g/ha, vs untreated controls
Summary of the method: as §2

## COCCOCCOC(=O)COc1ccccc1Oc1cc(-n2c(=O)cc(C(F)(F)F)n(C)c2=O)c(F)cc1Cl [I.7-23]
[1]; dosage 5 g/ha
  Post-emergence action against POLCO in %: 100%
[2]
  Post-emergence action at 1.25 g/ha against ABUTH in %: 100%
  Post-emergence action at 5 g/ha against ABUTH in %: 100%
Viola tricolor (VIOTR); 1.25 g/ha
  Post-emergence action against VIOTR: 100%
Viola tricolor (VIOTR); 5 g/ha
  Post-emergence action against VIOTR: 100%
[3]
  Post-emergence action at 1.25 g/ha against AMARE in %: 100%
  Post-emergence action at 5 g/ha against AMARE in %: 100%
[4]; dosage 5 g/ha
  Post-emergence action against PHBPU in %: 100%
Veronica persica (VERPE) [5]; 1.25 g/ha
  Post-emergence action against VERPE: 90%
Veronica persica (VERPE) [5]; 5 g/ha
  Post-emergence action against VERPE: 100%
Brassica napus (BRSNW)
  Post-emergence action against BRSNW (crop plant compatibility): 20%
[6]
  Post-emergence action against TRZAS (crop plant compatibility): 10%
[7]; dosage 1.25 g/ha
  Post-emergence action against MATIN in %: 90%
[7]; dosage 5 g/ha
  Post-emergence action against MATIN in %: 100%
[8]; dosage 5 g/ha
  Post-emergence action against ECHCG in %: 100%
Setaria viridis (SETVI); dosage 1.25 g/ha
  Post-emergence action against SETVI in %: 100%
Setaria viridis (SETVI); dosage 5 g/ha
  Post-emergence action against SETVI in %: 100%
[9]; 1.25 g/ha
  Post-emergence action at 1.25 g/ha against ALOMY in %: 80%
[9]
  Post-emergence action at 5 g/ha against ALOMY in %: 100%
Oryza sativa (ORYSA); 1.25 g/ha
  Post-emergence action against ORYSA (crop plant compatibility): 10%
Oryza sativa (ORYSA); 5 g/ha
  Post-emergence action against ORYSA (crop plant compatibility): 20%
Glycine max (GLXMA)
  Pre-emergence action against GLXMA in %: 10%
Zea mays (ZEAMX) [10]
  Pre-emergence action against ZEAMX in %: 20%
[11]; 20 g/ha
  Pre-emergence action against MATIN in %: 100%
[11]; 80 g/ha
  Pre-emergence action against MATIN in %: 100%
[12]; 20 g/ha
  Pre-emergence action against ECHCG in %: 80%
[12]; 80 g/ha
  Pre-emergence action against ECHCG in %: 90%
[13]; 20 g/ha
  Pre-emergence action against ABUTH in %: 100%
[13]; 80 g/ha
  Pre-emergence action against ABUTH in %: 100%
Avena fatua (AVEFA) [14]
  Pre-emergence action against AVEFA in %: 90%
Lolium rigidum (LOLRI) [15]; 20 g/ha
  Pre-emergence action against LOLRI in %: 90%
Lolium rigidum (LOLRI) [15]; 80 g/ha
  Pre-emergence action against LOLRI in %: 100%
[16]; 20 g/ha
  Pre-emergence action against AMARE in %: 100%
[16]; 80 g/ha
  Pre-emergence action against AMARE in %: 100%
[17]; 20 g/ha
  Pre-emergence action against DIGSA in %: 100%
[17]; 80 g/ha
  Pre-emergence action against DIGSA in %: 100%
[18]; 20 g/ha
  Pre-emergence action against PHBPU in %: 100%
[18]; 80 g/ha
  Pre-emergence action against PHBPU in %: 100%
Veronica persica (VERPE) [19]; 20 g/ha
  Pre-emergence action against VERPE in %: 100%
Veronica persica (VERPE) [19]; 80 g/ha
  Pre-emergence action against VERPE in %: 100%
[20]; 20 g/ha
  Pre-emergence action against ALOMY in %: 90%
[20]; 80 g/ha
  Pre-emergence action against ALOMY in %: 100%

## COCCOCCOC(=O)COc1ccccc1Sc1cc(-n2c(=O)cc(C(F)(F)F)n(C)c2=O)c(F)cc1Cl [I.1-23]
Hordeum murinum (HORMU); 5 g/ha
  Post-emergence action at 5 g/ha against HORMU in %: 80%
Hordeum murinum (HORMU); 20 g/ha
  Post-emergence action at 20 g/ha against HORMU in %: 100%
[1]; dosage 1.25 g/ha
  Post-emergence action against POLCO in %: 100%
[1]; dosage 5 g/ha
  Post-emergence action against POLCO in %: 100%
[1]; dosage 20 g/ha
  Post-emergence action against POLCO in %: 100%
[2]
  Post-emergence action at 1.25 g/ha against ABUTH in %: 100%
  Post-emergence action at 5 g/ha against ABUTH in %: 100%
[2]; 20 g/ha
  Post-emergence action at 20 g/ha against ABUTH in %: 100%
Avena fatua (AVEFA) [21]
  Post-emergence action at 20 g/ha against AVEFA in %: 80%
Stellaria media (STEME); 1.25 g/ha
  Post-emergence action against STEME: 80%
Stellaria media (STEME); 5 g/ha
  Post-emergence action against STEME: 100%
Stellaria media (STEME); 20 g/ha
  Post-emergence action against STEME: 100%
Lolium rigidum (LOLRI) [22]
  Post-emergence action against LOLRI in %: 80%
Viola tricolor (VIOTR); 1.25 g/ha
  Post-emergence action against VIOTR: 100%
Viola tricolor (VIOTR); 5 g/ha
  Post-emergence action against VIOTR: 100%
Viola tricolor (VIOTR); 20 g/ha
  Post-emergence action against VIOTR: 100%
[3]
  Post-emergence action at 1.25 g/ha against AMARE in %: 100%
  Post-emergence action at 5 g/ha against AMARE in %: 100%
[3]; 20 g/ha
  Post-emergence action at 20 g/ha against AMARE in %: 100%
[4]; dosage 1.25 g/ha
  Post-emergence action against PHBPU in %: 100%
[4]; dosage 5 g/ha
  Post-emergence action against PHBPU in %: 100%
[4]; dosage 20 g/ha
  Post-emergence action against PHBPU in %: 100%
Veronica persica (VERPE) [5]; 1.25 g/ha
  Post-emergence action against VERPE: 100%
Veronica persica (VERPE) [5]; 5 g/ha
  Post-emergence action against VERPE: 100%
Veronica persica (VERPE) [5]; 20 g/ha
  Post-emergence action against VERPE: 100%
Brassica napus (BRSNW)
  Post-emergence action against BRSNW (crop plant compatibility): 20%
Zea mays (ZEAMX) [23]
  Post-emergence action against ZEAMX (crop plant compatibility): 10%
[6]
  Post-emergence action against TRZAS (crop plant compatibility): 20%
[7]; dosage 1.25 g/ha
  Post-emergence action against MATIN in %: 80%
[7]; dosage 5 g/ha
  Post-emergence action against MATIN in %: 100%
[7]; dosage 20 g/ha
  Post-emergence action against MATIN in %: 100%
[8]; 1.25 g/ha, rated visually after about 3 weeks vs untreated controls, 100% = plants have died
  Post-emergence action at 1.25 g/ha against ECHCG in %: 90%
[8]; dosage 5 g/ha
  Post-emergence action against ECHCG in %: 100%
[8]; dosage 20 g/ha
  Post-emergence action against ECHCG in %: 100%
Setaria viridis (SETVI); 20 g/ha
  Post-emergence action against SETVI: 100%
Setaria viridis (SETVI); dosage 1.25 g/ha
  Post-emergence action against SETVI in %: 100%
Setaria viridis (SETVI); dosage 5 g/ha
  Post-emergence action against SETVI in %: 100%
[9]
  Post-emergence action at 5 g/ha against ALOMY in %: 90%
[9]; 20 g/ha
  Post-emergence action at 20 g/ha against ALOMY in %: 90%
Oryza sativa (ORYSA); 1.25 g/ha
  Post-emergence action against ORYSA (crop plant compatibility): 20%
